Experimental data published in US7259167B2, “Antimalarial and antiproliferative pharmacophore models, novel tryptanthrin compounds having increased solubility, and methods of making and using thereof” (United States of America as Represented by the Secretary of …, priority 2002, dated 2007).

Test system: P. berghei P-line
Assay: Bioavailability and efficacy of DN49 in infected mice
Assay type: in vivo
Protocol: On day 0, each mouse in groups 1 to 7 was inoculated intraperitoneally with 0.1 ml, 1.0×10^6 P. berghei P-line infected red blood cell from donor mice diluted in PBS.
DN49 was a yellow powder and dissolved completely in hot DMSO. The hot DMSO solution was then diluted 1:10 in PBS.
On days 3 to 5, 0.2 ml of the three dosages at 2.5, 1.25, 0.625 mg/kg of DN49 were administered intravenously by a 29G, 0.5-inch needle (Groups 2 to 4). In addition, 0.2 ml of the three dosages at 30, 15, 7.5 mg/kg of DN49 were administered orally by a 20G, 2.5-inch needle (Groups 5 to 7). Drug administrations were performed once daily for 3 days. Group 1 served as vehicle control, and PBS was administered orally.

## O=C1c2ccccc2-n2c1nc1ncccc1c2=O [DN49]
2.5 mg/kg intravenously once daily at study days 3 to 5
  extension of life of mice: 2 days
30 mg/kg orally once daily at study days 3 to 5
  extension of life of mice: 2 days
Group 2, 2.5 mg/kg intravenously once daily days 3 to 5
  mean parasitemia on day 6: 54.75%
Group 3, 1.25 mg/kg intravenously once daily days 3 to 5
  mean parasitemia on day 6: 55.75%
Group 4, 0.625 mg/kg intravenously once daily days 3 to 5
  mean parasitemia on day 6: 61.18%
Group 5, 30 mg/kg orally once daily days 3 to 5
  mean parasitemia on day 6: 56.11%
Group 6, 15 mg/kg orally once daily days 3 to 5
  mean parasitemia on day 6: 54.26%
Group 7, 7.5 mg/kg orally once daily days 3 to 5
  mean parasitemia on day 6: 64.23%
IV 0.625-2.5 mg/kg, oral 7.5-30 mg/kg
  acute toxicity or other deaths prior to day 6: no acute toxicity
At the dosages given (up to 2.5 mg/kg IV, 30 mg/kg oral)
  Toxic effects: not observed
Dosages below 2.5 mg/kg intravenously or 30 mg/kg orally
  activity at lower dosages: no significant activity
